# US20100035755A1, “METHOD OF CONTROLLING WEEDS IN A TURF GRASS BY USING SULFONYLUREA COMPOUNDS” (Moghu Research Center Ltd., priority 2008, published 2010)
# How the values were obtained:
# Perennial rye grass = test: Turf grass selectivity, greenhouse pot test; type: in vivo
# Source text: (§1) Turf mats of Zoysia grass, bentgrass, Kentucky bluegrass, or perennial rye grass known as cool season turfgrass or western grass were purchased and cut into a piece having 10 cm×20 cm size. Then, each piece was transplanted in a rectangular plastic pot (surface area of 300 cm^2) in which sandy loam and mixed top soil (Boo-Nong Top Soil No. 3, for horticultural use) are filled in 1:1 ratio. After the transplantation, the grasses were cut once a week to maintain the blade height at 0.5-1.0 cm and cultivated for one month in a green house of which temperature was kept at 25˜30° C. for daytime and 15˜25° C. for nighttime, respectively. Then, the ‘test chemical’ of the above Examples 1 and 2 or ‘control chemical’ was applied thereto in an amount of 400, 200, 100, 50, 25, 12, 6, 3 g ai/ha. As a “control chemical”, pyrazolsulfuron ethyl wettable agent (manufactured by Dongbu Fine Chemicals; herein after, referred to as ‘control chemical No. 1’) and flazasulfuron (manufactured by Dongbu HiTek; herein after, referred to as ‘control chemical No. 2’), both sulfonylurea herbicides for a turf grass, were used. Application was carried out by using a track sprayer (R&D Sprayer, USA) equipped with Teejet 8002 nozzle (Spraying Systems Co., USA), and the application amount was adjusted to 2,000 L/ha, which is a typical application amount for a golf course in Korea. Application solution was prepared by diluting the “test chemical” or the “control chemical” with tap water. […] The test was repeated three times in a random arrangement and the results are given in average value of each test (see Table 2 below).
# Zoysia japonica = test: Turf grass selectivity, greenhouse pot test; type: in vivo; settings: for phytotoxicity (visual assessment 0-10): Zoysia japonica
# Source text: as §1
# Kentucky bluegrass = test: Turf grass selectivity, greenhouse pot test; type: in vivo, Poa pratensis
# Source text: as §1
# Digitaria sanguinalis = test: Weed spectrum, greenhouse pot test; type: in vivo; settings: two weeks after application
# Source text: (§2) To a rectangular plastic pot (surface area of 300 cm^2) in which sandy loam and mixed top soil (Boo-Nong Top Soil No. 3, for horticultural use) are filled in 1:1 ratio, eight different kinds of weed seeds including Poa annua and Digitaria sanguinalis as poaceae weed, Cyperus amuricus as cyperaceae weeds and Trifolium repens, Kummerowia striata, fleabane, Veronica officinalis and Portulaca oleracea as broadleaf weeds were sewn (50 to 100 seeds per each weed). These weeds are representative examples of the weeds which typically thrive in a turf grass field.
# (§3) The pot was kept in a greenhouse which was maintained at 25˜30° C. for daytime and 15˜25° C. for nighttime, respectively, and irrigation was carried out regularly. Fourteen days after seeding, when the turf grass and the weeds reached approximately at three-leaf stage, the weed seeds were again sewn in separate two pots or “Test chemical” and “Control chemical” were applied in the same manner as the method described above. In this regard, when plants were cultivated for two weeks and then the chemical application was carried out, it is designated as “post-emergence” treatment. On the other than, when the seeding was carried right before the chemical application, it is designated as “pre-emergence” treatment. Preparation of a chemical solution, application method, etc. are the same as above described for evaluation of turf grass selectivity. Two weeks after the chemical application, efficacy of the chemicals for each type of the weeds was evaluated (visual evaluation) based on 0 to 100 scale (i.e., 0 indicates no efficacy and 100 indicates complete weed control).
# Kummerowia striata = test: Weed spectrum, greenhouse pot test; type: in vivo; settings: two weeks after application
# Source text: as §2, §3
# Poa annua = test: Weed spectrum, greenhouse pot test; type: in vivo; settings: two weeks after application
# Source text: as §2, §3
# Trifolium repens = test: Weed spectrum, greenhouse pot test; type: in vivo; settings: two weeks after application
# Source text: as §2, §3
# Dandelion = test: Weed spectrum, greenhouse pot test; type: in vivo; settings: two weeks after application
smiles,measurement,setting,value
"COc1cc(OC)nc(NC(=O)NS(=O)(=O)c2ncccc2C(F)(F)F)n1 [Control chemical No. 2, Flazasulfuron, reference compound]",phytotoxicity (visual assessment 0-10),"Perennial rye grass; 3 g ai/ha, 2 weeks",10
same,phytotoxicity (visual assessment 0-10),"Perennial rye grass; 3 g ai/ha, 4 weeks",10
same,phytotoxicity (visual assessment 0-10),"Perennial rye grass; 6 g ai/ha, 2 weeks",10
same,phytotoxicity (visual assessment 0-10),"Perennial rye grass; 6 g ai/ha, 4 weeks",10
same,phytotoxicity (visual assessment 0-10),"Perennial rye grass; 12 g ai/ha, 2 weeks",10
same,phytotoxicity (visual assessment 0-10),"Perennial rye grass; 12 g ai/ha, 4 weeks",10
same,phytotoxicity (visual assessment 0-10),"Perennial rye grass; 25 g ai/ha, 2 weeks",10
same,phytotoxicity (visual assessment 0-10),"Perennial rye grass; 25 g ai/ha, 4 weeks",10
same,phytotoxicity (visual assessment 0-10),"Perennial rye grass; 50 g ai/ha, 2 weeks",10
same,phytotoxicity (visual assessment 0-10),"Perennial rye grass; 50 g ai/ha, 4 weeks",10
same,phytotoxicity (visual assessment 0-10),"Perennial rye grass; 100 g ai/ha, 2 weeks",10
same,phytotoxicity (visual assessment 0-10),"Perennial rye grass; 100 g ai/ha, 4 weeks",10
same,phytotoxicity (visual assessment 0-10),"Perennial rye grass; 200 g ai/ha, 2 weeks",10
same,phytotoxicity (visual assessment 0-10),"Perennial rye grass; 200 g ai/ha, 4 weeks",10
same,phytotoxicity (visual assessment 0-10),"Perennial rye grass; 400 g ai/ha, 2 weeks",10
same,phytotoxicity (visual assessment 0-10),"Perennial rye grass; 400 g ai/ha, 4 weeks",10
same,safety to Zoysia japonica,Zoysia japonica; 50 g ai/ha or less,safe
same,phytotoxicity (visual assessment 0-10),"Zoysia japonica; 3 g ai/ha, 2 weeks",0
same,phytotoxicity (visual assessment 0-10),"Zoysia japonica; 3 g ai/ha, 4 weeks",0
same,phytotoxicity (visual assessment 0-10),"Zoysia japonica; 6 g ai/ha, 2 weeks",0
same,phytotoxicity (visual assessment 0-10),"Zoysia japonica; 6 g ai/ha, 4 weeks",0
same,phytotoxicity (visual assessment 0-10),"Zoysia japonica; 12 g ai/ha, 2 weeks",0
same,phytotoxicity (visual assessment 0-10),"Zoysia japonica; 12 g ai/ha, 4 weeks",0
same,phytotoxicity (visual assessment 0-10),"Zoysia japonica; 25 g ai/ha, 2 weeks",0
same,phytotoxicity (visual assessment 0-10),"Zoysia japonica; 25 g ai/ha, 4 weeks",0
same,phytotoxicity (visual assessment 0-10),"Zoysia japonica; 50 g ai/ha, 2 weeks",1
same,phytotoxicity (visual assessment 0-10),"Zoysia japonica; 50 g ai/ha, 4 weeks",1
same,phytotoxicity (visual assessment 0-10),"Zoysia japonica; 100 g ai/ha, 2 weeks",2
same,phytotoxicity (visual assessment 0-10),"Zoysia japonica; 100 g ai/ha, 4 weeks",2
same,phytotoxicity (visual assessment 0-10),"Zoysia japonica; 200 g ai/ha, 2 weeks",4
same,phytotoxicity (visual assessment 0-10),"Zoysia japonica; 200 g ai/ha, 4 weeks",3
same,phytotoxicity (visual assessment 0-10),"Zoysia japonica; 400 g ai/ha, 2 weeks",7
same,phytotoxicity (visual assessment 0-10),"Zoysia japonica; 400 g ai/ha, 4 weeks",6
same,phytotoxicity (visual assessment 0-10),"Kentucky bluegrass; 3 g ai/ha, 2 weeks",10
same,phytotoxicity (visual assessment 0-10),"Kentucky bluegrass; 3 g ai/ha, 4 weeks",10
same,phytotoxicity (visual assessment 0-10),"Kentucky bluegrass; 6 g ai/ha, 2 weeks",10
same,phytotoxicity (visual assessment 0-10),"Kentucky bluegrass; 6 g ai/ha, 4 weeks",10
same,phytotoxicity (visual assessment 0-10),"Kentucky bluegrass; 12 g ai/ha, 2 weeks",10
same,phytotoxicity (visual assessment 0-10),"Kentucky bluegrass; 12 g ai/ha, 4 weeks",10
same,phytotoxicity (visual assessment 0-10),"Kentucky bluegrass; 25 g ai/ha, 2 weeks",10
same,phytotoxicity (visual assessment 0-10),"Kentucky bluegrass; 25 g ai/ha, 4 weeks",10
same,phytotoxicity (visual assessment 0-10),"Kentucky bluegrass; 50 g ai/ha, 2 weeks",10
same,phytotoxicity (visual assessment 0-10),"Kentucky bluegrass; 50 g ai/ha, 4 weeks",10
same,phytotoxicity (visual assessment 0-10),"Kentucky bluegrass; 100 g ai/ha, 2 weeks",10
same,phytotoxicity (visual assessment 0-10),"Kentucky bluegrass; 100 g ai/ha, 4 weeks",10
same,phytotoxicity (visual assessment 0-10),"Kentucky bluegrass; 200 g ai/ha, 2 weeks",10
same,phytotoxicity (visual assessment 0-10),"Kentucky bluegrass; 200 g ai/ha, 4 weeks",10
same,phytotoxicity (visual assessment 0-10),"Kentucky bluegrass; 400 g ai/ha, 2 weeks",10
same,phytotoxicity (visual assessment 0-10),"Kentucky bluegrass; 400 g ai/ha, 4 weeks",10
same,efficacy (0-100 scale),"Digitaria sanguinalis; Post-emergence, 12 g ai/ha",50
same,efficacy (0-100 scale),"Digitaria sanguinalis; Post-emergence, 25 g ai/ha",70
same,efficacy (0-100 scale),"Digitaria sanguinalis; Post-emergence, 50 g ai/ha",80
same,efficacy (0-100 scale),"Digitaria sanguinalis; Post-emergence, 100 g ai/ha",80
same,efficacy (0-100 scale),"Digitaria sanguinalis; Pre-emergence, 12 g ai/ha",60
same,efficacy (0-100 scale),"Digitaria sanguinalis; Pre-emergence, 25 g ai/ha",70
same,efficacy (0-100 scale),"Digitaria sanguinalis; Pre-emergence, 50 g ai/ha",90
same,efficacy (0-100 scale),"Digitaria sanguinalis; Pre-emergence, 100 g ai/ha",100
same,efficacy (0-100 scale),"Kummerowia striata; Post-emergence, 12 g ai/ha",80
same,efficacy (0-100 scale),"Kummerowia striata; Post-emergence, 25 g ai/ha",90
same,efficacy (0-100 scale),"Kummerowia striata; Post-emergence, 50 g ai/ha",100
same,efficacy (0-100 scale),"Kummerowia striata; Post-emergence, 100 g ai/ha",100
same,efficacy (0-100 scale),"Kummerowia striata; Pre-emergence, 12 g ai/ha",80
same,efficacy (0-100 scale),"Kummerowia striata; Pre-emergence, 25 g ai/ha",90
same,efficacy (0-100 scale),"Kummerowia striata; Pre-emergence, 50 g ai/ha",100
same,efficacy (0-100 scale),"Kummerowia striata; Pre-emergence, 100 g ai/ha",100
same,efficacy (0-100 scale),"Poa annua; Post-emergence, 12 g ai/ha",40
same,efficacy (0-100 scale),"Poa annua; Post-emergence, 25 g ai/ha",70
same,efficacy (0-100 scale),"Poa annua; Post-emergence, 50 g ai/ha",80
same,efficacy (0-100 scale),"Poa annua; Post-emergence, 100 g ai/ha",90
same,efficacy (0-100 scale),"Poa annua; Pre-emergence, 12 g ai/ha",40
same,efficacy (0-100 scale),"Poa annua; Pre-emergence, 25 g ai/ha",70
same,efficacy (0-100 scale),"Poa annua; Pre-emergence, 50 g ai/ha",100
same,efficacy (0-100 scale),"Poa annua; Pre-emergence, 100 g ai/ha",100
same,efficacy (0-100 scale),"Trifolium repens; Post-emergence, 12 g ai/ha",80
same,efficacy (0-100 scale),"Trifolium repens; Post-emergence, 25 g ai/ha",100
same,efficacy (0-100 scale),"Trifolium repens; Post-emergence, 50 g ai/ha",100
same,efficacy (0-100 scale),"Trifolium repens; Post-emergence, 100 g ai/ha",100
same,efficacy (0-100 scale),"Trifolium repens; Pre-emergence, 12 g ai/ha",70
same,efficacy (0-100 scale),"Trifolium repens; Pre-emergence, 25 g ai/ha",80
same,efficacy (0-100 scale),"Trifolium repens; Pre-emergence, 50 g ai/ha",100
same,efficacy (0-100 scale),"Trifolium repens; Pre-emergence, 100 g ai/ha",100
same,efficacy (0-100 scale),"Dandelion; Post-emergence, 12 g ai/ha",10
same,efficacy (0-100 scale),"Dandelion; Post-emergence, 25 g ai/ha",30
same,efficacy (0-100 scale),"Dandelion; Post-emergence, 50 g ai/ha",40
same,efficacy (0-100 scale),"Dandelion; Post-emergence, 100 g ai/ha",50
same,efficacy (0-100 scale),"Dandelion; Pre-emergence, 12 g ai/ha",30
same,efficacy (0-100 scale),"Dandelion; Pre-emergence, 25 g ai/ha",40
same,efficacy (0-100 scale),"Dandelion; Pre-emergence, 50 g ai/ha",50
same,efficacy (0-100 scale),"Dandelion; Pre-emergence, 100 g ai/ha",70
